The subject of data set [1] is Smn protein in SMA patient fibroblast cells (GM03813). Put plainly: Smn protein assay in cultured cells (SMN HTRF). The class given is cell-based, human. The conditions noted are these: SMA patient fibroblast cells, 48 hours; for EC1.5x for Smn protein expression: 7-point concentration curve, SMN HTRF, concentration producing 1.5 times Smn protein vs DMSO vehicle control; for maximum fold (Fold) increase of Smn protein: 7-point concentration data, fold relative to vehicle control. In short, it runs like this: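 Read-out: HTRF 665/620 nm ratio, blank-subtracted as ΔF, then expressed as fold over DMSO vehicle. Fibroblasts from SMA patients were exposed to compounds for 48 h (7 points, 3.16-fold steps, triplicates). Values are EC1.5× and maximum fold Smn increase.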

Data set [2] concerns SMN2 minigene mRNA (SMN2-A minigene) in HEK293H cells. Put plainly: SMN2 minigene mRNA splicing RT-qPCR assay in cultured cells. The data set is classed as cell-based, human. The conditions noted are these: Homo sapiens, HEK293-H; concentration increasing full length SMN2 mRNA 1.5-fold relative to vehicle-treated cells; HEK293H cells with SMN2-A minigene, 24 hours, 7-point concentration data; read-out: EC1.5x for production of full length SMN2 mRNA. In short, it runs like this: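 Read-out: minigene-specific full-length (exon 7-included) SMN2 mRNA by one-step multiplex RT-qPCR, normalized to GAPDH and divided by vehicle-treated level. Stable SMN2-A minigene HEK293H cells, 24 h compound exposure, 7 concentrations in duplicate. EC1.5× = concentration raising FL mRNA 1.5-fold.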

As for `CCc1nc(C)cn2nc(-c3cc(=O)n4cc(N5CCN(CC)CC5)ccc4n3)cc12` [Compound 548, 2-(4-ethyl-6-methylpyrazolo[1,5-a]pyrazin-2-yl)-7-(4-ethylpiperazin-1-yl)-4H-pyrido[1,2-a]pyrimidin-4-one], the melting point (as a rule, the temperature of the solid-liquid transition) lay in the range of 250 to 252 °C. In data set [1], the “EC1.5x for Smn protein expression” value is “**** (an EC1.5x≤0.3 μM is indicated by four stars (****))” and the “maximum fold (Fold) increase of Smn protein” value (shortened to “maximum fold (Fold) increase”) was “***** (a fold increase >1.65 is indicated by five stars (*****))”. Moreover, in data set [2], the EC (1.5-fold increase) is less than 0.1 µM.
The corresponding values for `CCc1nc(C)cn2nc(-c3cc(=O)n4cc(N5CCN(CCO)CC5)ccc4n3)cc12` [Compound 549, 2-(4-ethyl-6-methylpyrazolo[1,5-a]pyrazin-2-yl)-7-[4-(2-hydroxyethyl)piperazin-1-yl]-4H-pyrido[1,2-a]pyrimidin-4-one] are 240 to 242 °C, “**** (an EC1.5x≤0.3 μM is indicated by four stars (****))”, “***** (a fold increase >1.65 is indicated by five stars (*****))” and less than 0.1 µM.
The corresponding values for `CCc1nc(C)cn2nc(-c3cc(=O)n4cc(N5CCC(N(C)C)CC5)ccc4n3)cc12` [Compound 550, 7-[4-(dimethylamino)piperidin-1-yl]-2-(4-ethyl-6-methylpyrazolo[1,5-a]pyrazin-2-yl)-4H-pyrido[1,2-a]pyrimidin-4-one] are 258 to 260 °C, “**** (an EC1.5x≤0.3 μM is indicated by four stars (****))”, “***** (a fold increase >1.65 is indicated by five stars (*****))” and less than 0.1 µM.
The corresponding values for `CCc1nc(C)cn2nc(-c3cc(=O)n4cc(N5CCC(N(CC)CC)CC5)ccc4n3)cc12` [Compound 551, 7-[4-(diethylamino)piperidin-1-yl]-2-(4-ethyl-6-methylpyrazolo[1,5-a]pyrazin-2-yl)-4H-pyrido[1,2-a]pyrimidin-4-one] are 232 to 235 °C, “**** (an EC1.5x≤0.3 μM is indicated by four stars (****))”, “***** (a fold increase >1.65 is indicated by five stars (*****))” and 0.1 to 0.3 µM.
For the compound `C[C@@H]1CN(c2ccc3nc(-c4ccc5c(cnn5C)c4)cc(=O)n3c2)C[C@H](C)N1` [Compound 552, 7-[(3R,5S)-3,5-dimethylpiperazin-1-yl]-2-(1-methyl-1H-indazol-5-yl)-4H-pyrido[1,2-a]pyrimidin-4-one], the melting point fell in the range of 240 to 242 °C. In data set [1], the “EC1.5x for Smn protein expression” value was “*** (an EC1.5× between >0.3 μM and ≤1 μM is indicated by three stars (***))”; the “maximum fold (Fold) increase” value is “**** (a fold increase between >1.5 and ≤1.65 is indicated by four stars (****))”. In data set [2], the EC (1.5-fold increase) lay within 0.3 to 1 µM.
The compound `C[C@H]1CN(c2ccc3nc(-c4ccc5c(cnn5C)c4)cc(=O)n3c2)CCN1` [Compound 553, 2-(1-methyl-1H-indazol-5-yl)-7-[(3S)-3-methylpiperazin-1-yl]-4H-pyrido[1,2-a]pyrimidin-4-one] displayed a melting point of 206 to 208 °C. Further, in data set [1], the “EC1.5x for Smn protein expression” value is reported as “**** (an EC1.5x≤0.3 μM is indicated by four stars (****))” and the “maximum fold (Fold) increase” value was “***** (a fold increase >1.65 is indicated by five stars (*****))”. Besides, the EC (1.5-fold increase) in data set [2] lay within 0.1 to 0.3 µM.
In the case of `Cc1cn2cc(-c3cc(=O)n4cc(C5CCN(C(C)C)CC5)ccc4n3)ccc2n1` [Compound 554, 2-(2-methylimidazo[1,2-a]pyridin-6-yl)-7-[1-(propan-2-yl)piperidin-4-yl]-4H-pyrido[1,2-a]pyrimidin-4-one], the melting point was in the range of 218 to 220 °C. For the same compound, in data set [1], the “EC1.5x for Smn protein expression” value is given as “**** (an EC1.5x≤0.3 μM is indicated by four stars (****))” and the “maximum fold (Fold) increase” value is listed as “***** (a fold increase >1.65 is indicated by five stars (*****))”. The EC (1.5-fold increase) in data set [2] was in the range of 0.1 to 0.3 µM.
Regarding `Cc1cn2ccc(-c3cc(=O)n4cc(N5CCNCC5)ccc4n3)cc2n1` [Compound 555, 2-(2-methylimidazo[1,2-a]pyridin-7-yl)-7-(piperazin-1-yl)-4H-pyrido[1,2-a]pyrimidin-4-one], the melting point is 272 to 277 °C. Besides, in data set [1], the “EC1.5x for Smn protein expression” value was “** (an EC1.5× between >1 μM and ≤3 μM is indicated by two stars (**))”; the “maximum fold (Fold) increase” value is “*** (a fold increase between >1.35 and ≤1.5 is indicated by three stars (***))”. Moreover, the EC (1.5-fold increase) in data set [2] is 1 to 3 µM.
For the compound `Cc1cn2ccc(-c3cc(=O)n4cc(C5CCNCC5)ccc4n3)cc2n1` [Compound 556, 2-(2-methylimidazo[1,2-a]pyridin-7-yl)-7-(piperidin-4-yl)-4H-pyrido[1,2-a]pyrimidin-4-one], the melting point is 257 to 260 °C. In data set [1], the “EC1.5x for Smn protein expression” value was “** (an EC1.5× between >1 μM and ≤3 μM is indicated by two stars (**))”; the “maximum fold (Fold) increase” value is “*** (a fold increase between >1.35 and ≤1.5 is indicated by three stars (***))”. Further, the EC (1.5-fold increase) in data set [2] is 0.3 to 1 µM.
Regarding `Cc1cn2ccc(-c3cc(=O)n4cc(N5CCN(C)CC5)ccc4n3)cc2n1` [Compound 557, 2-(2-methylimidazo[1,2-a]pyridin-7-yl)-7-(4-methylpiperazin-1-yl)-4H-pyrido[1,2-a]pyrimidin-4-one], the melting point fell in the range of 285 to 288 °C. Also, the “maximum fold (Fold) increase” value in data set [1] is recorded as “* (A maximum fold increase of ≤1.2 is indicated by one star (*))”. In addition, the EC (1.5-fold increase) in data set [2] fell in the range of 1 to 3 µM.
Turning to `CCN1CCN(c2ccc3nc(-c4ccn5cc(C)nc5c4)cc(=O)n3c2)CC1` [Compound 558, 7-(4-ethylpiperazin-1-yl)-2-(2-methylimidazo[1,2-a]pyridin-7-yl)-4H-pyrido[1,2-a]pyrimidin-4-one], the melting point lay within 219 to 222 °C. Moreover, the “maximum fold (Fold) increase” value in data set [1] is “** (a fold increase between >1.2 and ≤1.35 is indicated by two stars (**))”. The EC (1.5-fold increase) in data set [2] fell in the range of 1 to 3 µM.
In turn, `Cc1cn2ccc(-c3cc(=O)n4cc(C5CCN(C)CC5)ccc4n3)cc2n1` [Compound 559, 2-(2-methylimidazo[1,2-a]pyridin-7-yl)-7-(1-methylpiperidin-4-yl)-4H-pyrido[1,2-a]pyrimidin-4-one] showed a melting point of 255 to 260 °C. Further, the “maximum fold (Fold) increase” value in data set [1] is “* (A maximum fold increase of ≤1.2 is indicated by one star (*))”. Moreover, the EC (1.5-fold increase) in data set [2] fell in the range of 1 to 3 µM.
`CCN1CCC(c2ccc3nc(-c4ccn5cc(C)nc5c4)cc(=O)n3c2)CC1` [Compound 560, 7-(1-ethylpiperidin-4-yl)-2-(2-methylimidazo[1,2-a]pyridin-7-yl)-4H-pyrido[1,2-a]pyrimidin-4-one] registered a melting point of 229 to 233 °C. For the same compound, the “maximum fold (Fold) increase” value in data set [1] is reported as “* (A maximum fold increase of ≤1.2 is indicated by one star (*))”. Further, the EC (1.5-fold increase) in data set [2] is 1 to 3 µM.

The record behind these values is patent US11753407B2, “Compounds for treating spinal muscular atrophy” (PTC Therapeutics, Inc., priority 2012, dated 2023).
